TGI and GI50 data for 11 molecules are collected here from PubChem BioAssay (NCI).

Test systems include DMS 114 small cell lung; DLD-1 colon; M19-MEL melanoma; RXF-631 renal.
Holding throughout (experiment): growth of human tumour cells (NCI), 48 h

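Compound exposure: 48 hours, 5 concentrations, 96-well plates. The concentration for 50% growth inhibition is given as GI50. TGI: total growth inhibition.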

On to `CC1(C)CCC[C@@]2(C)C1CC[C@H]1CC(O)C3(C)CCC12C3` (stereo not given in full), for which the TGI in the experiment with DMS 114 small cell lung is 31.2 µM; with DLD-1 colon it was 30.9 µM; in the experiment with M19-MEL melanoma it was 38.2 µM; in the experiment on RXF-631 renal, 33.5 µM.

In the case of `NC(=S)N/N=C(\C(=O)Nc1cccc([N+](=O)[O-])c1)c1nc2ccc([N+](=O)[O-])cc2[nH]c1=O`, the TGI in the experiment with DMS 114 small cell lung, in the experiment on DLD-1 colon, with M19-MEL melanoma and in the experiment with RXF-631 renal was above 100 µM in each case.

In the case of `CCCn1c(SCC)c2cc3cc4ccccc4cc3cc2c1-c1nc(F)nc(F)n1`, the TGI in the experiment on DMS 114 small cell lung, with M19-MEL melanoma and in the experiment with RXF-631 renal was above 100 µM each time.

As to `O=C(c1ccco1)N(C(=S)N1CCN(c2ccccn2)CC1)C1CCCCC1`, the TGI with DMS 114 small cell lung, with DLD-1 colon and in the experiment on M19-MEL melanoma was above 100 µM throughout.

Regarding `CC(C)C1CCC/C=C/C=C/C=C/C=C/C(OC2OC(C)C(O)C(N)C2O)CC2OC(O)(CC(O)CC(O)C(O)CCC(=O)O1)CC(O)C2C(=O)O` (stereo not given), the TGI with DMS 114 small cell lung and in the experiment on M19-MEL melanoma was above 52.5 µM in each case.

For the molecule `O=C(c1cccs1)N(C(=S)N1CCN(c2ccccn2)CC1)C1CCCCC1`, the TGI with DMS 114 small cell lung and in the experiment with DLD-1 colon was above 100 µM throughout.

As to `CSc1nc(NC(=O)O)c(N(C(C)=O)C(=O)O)c(=O)n1C`, the TGI in the experiment on DMS 114 small cell lung, in the experiment on DLD-1 colon, in the experiment on M19-MEL melanoma and in the experiment on RXF-631 renal was above 100 µM throughout.

In the case of `O=C(Nc1ccc(F)cc1)C(=O)C(C1OC(=O)c2ccccc21)[N+](=O)[O-]` (stereo not given), the TGI in the experiment on DMS 114 small cell lung, in the experiment with DLD-1 colon and with M19-MEL melanoma was above 100 µM in each case.

`Cc1ccc(NC(=O)CC(=O)n2nc(-c3ccccc3)c(N=Nc3ccccc3Cl)c2-c2ccccc2)cc1`: the GI50 in the experiment with DMS 114 small cell lung and in the experiment with M19-MEL melanoma was above 100 µM throughout. For the same molecule, the TGI with DMS 114 small cell lung, with M19-MEL melanoma and with RXF-631 renal was above 100 µM throughout.

For the molecule `CC1=NN(C(=O)c2ccccc2O)C(=O)/C1=C/c1ccccc1O`, the TGI in the experiment with DMS 114 small cell lung was 8.86 µM; with DLD-1 colon, above 100 µM.

On to `CCCN1CN(C(C(=O)N[C@@H]2C(=O)N3C(C(=O)O)=C(C)CSC23)c2ccc(O)cc2)CSC1=S` (stereo not given in full), for which the TGI with DMS 114 small cell lung, with DLD-1 colon and with M19-MEL melanoma was above 100 µM each time.
